The target in one assay is T1, BRD4 (BD1) (Homo sapiens, UniProt O60885).
T1 construct: Each member comprises two tandem bromodomains (BD1 and BD2) for recognizing the acetylated lysine residues
The experiment in a line: BRD4 (BD1) bromodomain binding, HTRF. The note with it: 2 h incubation at r.t. Background: In TR-FRET formats the signal depends on donor and acceptor labels being close together.

A further assay concerns MV-4-11 cells. In words: Inhibitory effect on MV-4-11 cells (CellTiter-Glo). In kind it is cell-based. The following applies: Homo sapiens, read-out: MV-4-11.
For a further assay, the target named is T2, BRD4 (BD2) (Homo sapiens, UniProt O60885).
T2 construct: Each member comprises two tandem bromodomains (BD1 and BD2) for recognizing the acetylated lysine residues
In words: BRD4 (BD2) bromodomain binding, HTRF. The following applies: 2 h incubation at r.t.

Where [1] appears, read: MV4-11, 72 hours, CellTiter-Glo.

Read-outs that look alike come from different tables or passages of the source. Bounds are passed on as bounds.

Method for MV-4-11 cells: The 1st Day: Seed the Cells on the Plate
1. The cells were verified that they were in good conditions by observation under microscope;
2. The cells were transferred to a 15 mL centrifuge tube, after centrifuged at 1000 rpm for 5 min, the supernatant was discarded;
3. The complete medium (IMDM+10% FBS) was added, then blown and patted into single cell suspension, counted by Vi-cell cytometer, the cell suspension was adjusted to desired cell density by the complete medium.
4. The cells were inoculated into a 96 well plate, the cell number was 15000/well at 100 μL per well, 100 μL complete medium was added into the black control.
5. 37° C., 5% CO2 culture overnight.
The 2nd Day: Addition of the Drugs
1. 1000× Compound Plate Preparation
1.1. The test compound was prepared into 10 mM working solution by using DMSO. Then the STS was prepared into 2 mM working solution by using DMSO.
1.2. In the round bottom 96 wells plate, the column 2 of row A to H was added into 60 μL 10 mM test compound (or STS) working solution, columns 3-11 were added into 40 μL DMSO, 20 μL drug solution was pipetted from the column 2 to the column 3, blown and patted for a homogeneous mixture; then 20 μL solution was pipetted from the column 3 to the column 4, blown and patted for a homogeneous mixture, sequently, the drug was diluted by 3 times, 10 concentrations in total. The columns 1 and 12 were supplemented with 40 μL of DMSO.
2. Intermediate plate areparation
A sterile V-bottom 96 deep well plate was used and in each well, 495 μL FBS-free PRMI 1640 medium was added, then 5 μL of the diluted compound (or DMSO) in the 1000× compound plate was pipetted into corresponding position of the V-bottom 96 well plate, blown and patted evenly.
3.1. The cell plate was taken out from the incubator and was observed under microscope. The diluted compound or DMSO in the intermediate plate was added into the cell plate, 11 μL each well.
3.2. The cell was continued to be cultured at 37° C., 5% CO2 for 72 hours.
The 5th Day: CellTiter-Glo Detection of the Cell Activity
1. The CellTiter-Glo buffer and the reaction substrate were taken out from the refrigerator, after balanced to r.t., the buffer was poured into a brown bottle containing the substrate, the bottle was upside down to have the substrate powder sufficientaly dissolved.
2. The cell was observed under microscope; the cell plate was balanced to r.t.
3. The prepared CellTiter-Glo was added into the 96 well plate, at 100 μL/well.
4. The cell plate was placed on a shaker for 10 min, followed by standing at r.t. for 10 min.
5. A white seal film was attached to the bottom of the well plate, and the chemiluminescence signal of each well was detected by the Enspire microplate detector.
6. XLfit was used for data processing. Inhibition rate %=(d−c)/(d−b)×100, while d is the signal value of the DMSO treated group, c is the signal value of the compound treated group, b is signal value of the blank control that only containing medium and DMSO without cells. The data was fitted using the f(x)205[fit=(A+((B−A)/(1+((C/x)^∧D))))] equation in the XLfit software.

As for `CC(C)S(=O)(=O)Cc1ccc2c(c1)-c1cn(C)c(=O)cc1[C@H](C)N=C2c1ccc(F)cc1` [Compound 4044, (S)-10-((isopropylsulfone)methyl)-7-(4-flurophenyl)-2,5-dimethyl-2,5-dihydro-3H-benzo[c]pyrido[3,4-e]azepin 3-ketone], the IC50 at BRD4 (BD1) is 1 nM; with MV-4-11 cells (setting [1]), 7 nM; at BRD4 (BD2) it was 1 nM.

With `C[C@@H]1N=C(c2ccc(F)cc2)c2ccc(CS(=O)(=O)C3CC3)cc2-c2cn(C)c(=O)cc21` [Compound 4045, (S)-7-(4-flurophenyl)-2,5-dimethyl-10-((cyclopropylsulfone)methyl)-2,5-dihydro-3H-benzo[c]pyrido[3,4-e]azepin-3-ketone], the figures for the IC50 at BRD4 (BD1), in the assay with MV-4-11 cells (setting [1]) and at BRD4 (BD2) were 1 nM, 8 nM and 1 nM, respectively.

As to `CCS(=O)(=O)Cc1ccc2c(c1)-c1cn(C)c(=O)cc1[C@H](C)N=C2c1ccc(F)cc1F` [Compound 4046], the IC50 on BRD4 (BD1) was 1 nM; with MV-4-11 cells (setting [1]), 4 nM; on BRD4 (BD2) it was 1 nM.

For `CC[C@@H]1N=C(c2ccc(Cl)cc2)c2ccc(CS(=O)(=O)CC)cc2-c2cn(C)c(=O)cc21` [Compound 4047, (S)-5-ethyl-10-((ethylsulfonyl)methyl)-7-(4-chlorophenyl)-2-methyl-2,5-dihydro-3H-benzo[c]pyrido[3,4-e]azepin-3-ketone], the figures for the IC50 on BRD4 (BD1), in the assay with MV-4-11 cells (setting [1]) and at BRD4 (BD2) were 0.4 nM, 2 nM and 1 nM, respectively.

Take `CC[S+]([O-])Cc1ccc2c(c1)-c1cn(C)c(=O)cc1[C@H](C)N=C2c1ccc(F)cc1` (stereo partly drawn) [Compound 4048, (5S)-10-((ethylsulfoxide)methyl)-7-(4-flurophenyl)-2,5-dimethyl-2,5-dihydro-3H-benzo[c]pyrido[3,4-e]azepin-3-ketone]: the figures for the IC50 at BRD4 (BD1), with MV-4-11 cells (setting [1]) and on BRD4 (BD2) were 2 nM, 28 nM and 2 nM, respectively.

As to `CCS(=O)(=O)Nc1ccc2c(c1)-c1cn(C)c(=O)cc1[C@H](C)N=C2c1ccc(F)cc1` [Compound 4049, (S)—N-(7-(4-flurophenyl)-2,5-dimethyl-3-oxo-3,5-dihydro-2H-benzo[c]pyrido[3,4-e]azepin-10-yl)ethylsulfonamide], the IC50 at BRD4 (BD1) is 2 nM; in the assay on MV-4-11 cells (setting [1]) it was 1 nM; at BRD4 (BD2), 1 nM.

Take `CCNC(=O)Nc1ccc2c(c1)-c1cn(C)c(=O)cc1[C@H](C)N=C2c1ccc(F)cc1` [Compound 4051, (S)-1-ethyl-3-(7-(4-flurophenyl)-2,5-dimethyl-3-oxo-3,5-dihydro-2H-benzo[c]pyrido[3,4-e]azepin-10-yl)urea]: the figures for the IC50 on BRD4 (BD1), in the assay with MV-4-11 cells (setting [1]) and on BRD4 (BD2) were 5 nM, 42 nM and 3 nM, respectively.

On to `CCNS(=O)(=O)c1ccc2c(c1)-c1cn(C)c(=O)cc1[C@H](C)N=C2c1ccc(F)cc1` [Compound 4052, (S)—N-ethyl-7-(4-flurophenyl)-2,5-dimethyl-3-oxo-3,5-dihydro-2H-benzo[c]pyrido[3,4-e]azepin-10-sulfamide], for which the IC50 came to 6 nM on BRD4 (BD1), 55 nM in the assay on MV-4-11 cells (setting [1]) and 2 nM on BRD4 (BD2).

For `CCS(=O)(=O)Cc1ccc2c(c1)-c1cn(C)c(=O)cc1[C@H](C)N=C2c1ccc(OC)cc1` [Compound 4053, (S)-10-((ethylsulfonyl)methyl)-7-(4-methoxylphenyl)-2,5-dimethyl-2,5-dihydro-3H-benzo[c]pyrido[3,4-e]azepin-3-ketone], the IC50 on BRD4 (BD1) is 2 nM; in the assay on MV-4-11 cells (setting [1]), 7 nM; on BRD4 (BD2), 1 nM.

For `CCS(=O)(=O)Cc1ccc2c(c1)-c1cn(C)c(=O)cc1[C@H](C)N=C2c1ccc(F)c(OC)c1` [Compound 4054, (S)-10-((ethylsulfonyl)methyl)-7-(4-fluoro-3-methoxylphenyl)-2,5-dimethyl-2,5-dihydro-3H-benzo[c]pyrido[3,4-e]azepin-3-ketone], the IC50 on BRD4 (BD1) came out at 2 nM; in the assay with MV-4-11 cells (setting [1]), 9 nM; on BRD4 (BD2), 1 nM.

For `CCS(=O)(=O)Nc1cc2c(cc1F)C(c1ccc(F)cc1)=N[C@@H](C)c1cc(=O)n(C)cc1-2` [Compound 4055, (S)—N-(9-fluoro-7-(4-flurophenyl)-2,5-dimethyl-3-oxo-3,5-dihydro-2H-benzo[c]pyrido[3,4-e]azepin-10-yl)ethylsulfonamide], the IC50 on BRD4 (BD1), in the assay on MV-4-11 cells (setting [1]) and on BRD4 (BD2) was 1 nM each time.

Regarding `CCNC(=O)C[C@@H]1N=C(c2ccc(F)cc2)c2ccc(CS(=O)(=O)CC)cc2-c2cn(C)c(=O)cc21` [Compound 4056, (S)—N-ethyl-2-(10-((ethylsulfonyl)methyl)-7-(4-flurophenyl)-2-methyl-3-oxo-3,5-dihydro-2H-benzo[c]pyrido[3,4-e]azepin-5-yl)acetamide], the IC50 on BRD4 (BD1) came out at 1 nM; in the assay with MV-4-11 cells (setting [1]), 32 nM; at BRD4 (BD2) it was 1 nM.

Turning to `CCS(=O)(=O)Cc1cc2c(cc1OC)C(c1ccc(F)cc1)=N[C@@H](C)c1cc(=O)n(C)cc1-2` [Compound 4057, (S)-10-((ethylsulfonyl)methyl)-7-(4-flurophenyl)-9-methoxyl-2,5-dimethyl-2,5-dihydro-3H-benzo[c]pyrido[3,4-e]azepin-3-ketone], the IC50 is 2 nM at BRD4 (BD1), 4 nM with MV-4-11 cells (setting [1]) and 1 nM at BRD4 (BD2).

Turning to `CCS(=O)(=O)Nc1cc2c(cc1Cl)C(c1ccc(F)cc1)=N[C@@H](C)c1cc(=O)n(C)cc1-2` [Compound 4058], the IC50 at BRD4 (BD1) came to 1 nM; with MV-4-11 cells (MV4-11, 72 h), 1 nM; at BRD4 (BD2), 1 nM.

As to `C[C@@H]1N=C(c2ccc(F)cc2)c2ccc(CS(C)(=O)=O)cc2-c2cn(C)c(=O)cc21` [Compound 4059, (S)-7-(4-flurophenyl)-2,5-dimethyl-10-((dimethylfulfone)methyl)-2,5-dihydro-3H-benzo[c]pyrido[3,4-e]azepin-3-ketone], the IC50 at BRD4 (BD1) is 2 nM; in the assay on MV-4-11 cells (setting [1]), 7 nM; at BRD4 (BD2), 1 nM.

`CCS(=O)(=O)Cc1ccc2c(c1)-c1cn(C)c(=O)cc1[C@H](C(C)C)N=C2c1ccc(F)cc1` [Compound 4060, (S)-10-((ethylsulfonyl)methyl)-7-(4-flurophenyl)-5-isopropyl-2-methyl-2,5-dihydro-3H-benzo[c]pyrido[3,4-e]azepin-3-ketone]: the IC50 on BRD4 (BD1) is 2 nM; in the assay with MV-4-11 cells (setting [1]), 19 nM; at BRD4 (BD2), 1 nM.

Turning to `CCS(=O)(=O)Cc1ccc2c(c1)-c1cn(C)c(=O)cc1[C@H](C)N=C2c1ccc(O)cc1` [Compound 4061, (S)-10-((ethylsulfonyl)methyl)-7-(4-hydroxylphenyl)-2,5-dimethyl-2,5-dihydro-3H-benzo[c]pyrido[3,4-e]azepin-3-ketone], the IC50 on BRD4 (BD1) came to 2 nM; with MV-4-11 cells (setting [1]), 11 nM; on BRD4 (BD2), 1 nM.

As for `CCS(=O)(=O)Nc1cc2c(cc1F)C(c1ccc(Cl)cc1)=N[C@@H](C)c1cc(=O)n(C)cc1-2` [Compound 4062, (S)—N-(7-(4-chlorophenyl)-9-fluoro-2,5-dimethyl-3-oxo-3,5-dihydro-2H-benzo[c]pyrido[3,4-e]azepin-10-yl)ethylsulfonamide], the IC50 at BRD4 (BD1), in the assay on MV-4-11 cells (setting [1]) and on BRD4 (BD2) was 1 nM in each case.

As for `CCS(=O)(=O)Cc1cc2c(cc1O)C(c1ccc(F)cc1)=N[C@@H](C)c1cc(=O)n(C)cc1-2` [Compound 4063, (S)-10-((ethylsulfonyl)methyl)-7-(4-flurophenyl)-9-hydroxyl-2,5-dimethyl-2,5-dihydro-3H-benzo[c]pyrido[3,4-e]azepin-3-ketone], the IC50 at BRD4 (BD1) worked out at 1 nM; in the assay on MV-4-11 cells (setting [1]), 3 nM; on BRD4 (BD2), 1 nM.

Take `CCS(=O)(=O)Cc1ccc2c(c1)-c1cn(C)c(=O)cc1[C@H](C)N=C2c1ccc(F)c(O)c1` [Compound 4064, (S)-10-((ethylsulfonyl)methyl)-7-(4-fluoro-3-hydroxylphenyl)-2,5-dimethyl-2,5-dihydro-3H-benzo[c]pyrido[3,4-e]azepin-3-ketone]: the figures for the IC50 on BRD4 (BD1), in the assay on MV-4-11 cells (setting [1]) and on BRD4 (BD2) were 2 nM, 8 nM and 1 nM, respectively.

For `CC[C@@H]1N=C(c2ccc(F)cc2)c2cc(Cl)c(NS(=O)(=O)CC)cc2-c2cn(C)c(=O)cc21` [Compound 4065, (S)—N-(9-chloro-5-ethyl-7-(4-flurophenyl)-2-methyl-3-oxo-3,5-dihydro-2H-benzo[c]pyrido[3,4-e]azepin-10-yl)ethylsulfonamide], the IC50 on BRD4 (BD1) was found to be 2 nM; in the assay with MV-4-11 cells (setting [1]), 1 nM; at BRD4 (BD2) it was 1 nM.

On to `CC[C@@H]1N=C(c2ccc(F)cc2)c2cc(F)c(NS(=O)(=O)CC)cc2-c2cn(C)c(=O)cc21` [Compound 4066, (S)—N-(5-ethyl-9-fluoro-7-(4-flurophenyl)-2-methyl-3-oxo-3,5-dihydro-2H-benzo[c]pyrido[3,4-e]azepin-10-yl)ethylsulfonamide], for which the IC50 on BRD4 (BD1) came to 1 nM; in the assay on MV-4-11 cells (setting [1]), 0.4 nM; on BRD4 (BD2), 1 nM.

`CCS(=O)(=O)Cc1ccc2c(c1)-c1cn(C)c(=O)cc1[C@H](CC(=O)O)N=C2c1ccc(F)cc1` [Compound 4067, (S)-2-(10-((ethylsulfonyl)methyl)-7-(4-flurophenyl)-2-methyl-3-oxo-3,5-dihydro-2H-benzo[c]pyrido[3,4-e]azepin-5-yl)acetic acid]: the IC50 at BRD4 (BD1) was 6 nM; in the assay on MV-4-11 cells (setting [1]), more than 2000 nM; on BRD4 (BD2) it was 1 nM.

For the compound `CCS(=O)(=O)Nc1cc2c(cc1Cl)C(c1ccc(Cl)cc1)=N[C@@H](C)c1cc(=O)n(C)cc1-2` [Compound 4068, (S)—N-(9-chloro-7-(4-chlorophenyl)-2,5-dimethyl-3-oxo-3,5-dihydro-2H-benzo[c]pyrido[3,4-e]azepin-10-yl)ethylsulfonamide], the IC50 on BRD4 (BD1) is 1 nM; in the assay with MV-4-11 cells (setting [1]), 1 nM; on BRD4 (BD2), 0.5 nM.
